# Laboratory results: PubChem BioAssay AID2060606 (Molecular Pharmacology Branch, DTP, NCI, 2025)
# System: 922993-354-T-J3-PDC complex spheroids, viability, % test/control
# Assay: Anticancer human tumor 922993-354-T-J3-PDC patient-derived endometrial carcinoma cell line growth inhibition [CLK]
# Settings: for IC50: curve of first compound; for viability, T/C: stronger effect = lower value
# Summary of the method: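 Patient-derived tumor cells grown as complex spheroids with HUVEC endothelial cells and mesenchymal stem cells, treated with drug combinations. Concentrations descend in half-log steps from near clinical Cmax, or from 10 microM if Cmax unknown.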
# [1] = second compound 0.0316 µM, first compound 0.00949 µM
# [2] = second compound 0.0316 µM, first compound 0.03 µM
# [3] = second compound 0.0316 µM, first compound 0.0949 µM
# [4] = second compound 0.0316 µM, first compound 0.3 µM
# [5] = second compound 0.1 µM, first compound 0.00949 µM
# [6] = second compound 0.1 µM, first compound 0.03 µM
# [7] = second compound 0.1 µM, first compound 0.0949 µM
# [8] = second compound 0.1 µM, first compound 0.3 µM
# [9] = second compound 0.316 µM, first compound 0.00949 µM
# [10] = second compound 0.316 µM, first compound 0.03 µM
# [11] = second compound 0.316 µM, first compound 0.0949 µM
# [12] = second compound 0.316 µM, first compound 0.3 µM
# [13] = second compound 1 µM, first compound 0.00949 µM
# [14] = second compound 1 µM, first compound 0.03 µM
# [15] = second compound 1 µM, first compound 0.0949 µM
# [16] = second compound 1 µM, first compound 0.3 µM
# [17] = second compound 3.16 µM, first compound 0.00949 µM
# [18] = second compound 3.16 µM, first compound 0.03 µM
# [19] = second compound 3.16 µM, first compound 0.0949 µM
# [20] = second compound 3.16 µM, first compound 0.3 µM
# [21] = second compound 10 µM, first compound 0.00949 µM
# [22] = second compound 10 µM, first compound 0.03 µM
# [23] = second compound 10 µM, first compound 0.0949 µM
# [24] = second compound 10 µM, first compound 0.3 µM
# [25] = second compound 0.0316 µM, first compound 0.0316 µM
# [26] = second compound 0.0316 µM, first compound 0.1 µM
# [27] = second compound 0.0316 µM, first compound 0.316 µM
# [28] = second compound 0.0316 µM, first compound 1 µM
# [29] = second compound 0.0316 µM, first compound 3.16 µM
# [30] = second compound 0.0316 µM, first compound 10 µM
# [31] = second compound 0.1 µM, first compound 0.0316 µM
# [32] = second compound 0.1 µM, first compound 0.1 µM
# [33] = second compound 0.1 µM, first compound 0.316 µM
# [34] = second compound 0.1 µM, first compound 1 µM
# [35] = second compound 0.1 µM, first compound 3.16 µM
# [36] = second compound 0.1 µM, first compound 10 µM
# [37] = second compound 0.316 µM, first compound 0.0316 µM
# [38] = second compound 0.316 µM, first compound 0.1 µM
# [39] = second compound 0.316 µM, first compound 0.316 µM
# [40] = second compound 0.316 µM, first compound 1 µM
# [41] = second compound 0.316 µM, first compound 3.16 µM
# [42] = second compound 0.316 µM, first compound 10 µM
# [43] = second compound 1 µM, first compound 0.0316 µM
# [44] = second compound 1 µM, first compound 0.1 µM
# [45] = second compound 1 µM, first compound 0.316 µM
# [46] = second compound 1 µM, first compound 1 µM
# [47] = second compound 1 µM, first compound 3.16 µM
# [48] = second compound 1 µM, first compound 10 µM
# [49] = second compound 3.16 µM, first compound 0.0316 µM
# [50] = second compound 3.16 µM, first compound 0.1 µM
# [51] = second compound 3.16 µM, first compound 0.316 µM
# [52] = second compound 3.16 µM, first compound 1 µM
# [53] = second compound 3.16 µM, first compound 3.16 µM
# [54] = second compound 3.16 µM, first compound 10 µM
# [55] = second compound 10 µM, first compound 0.0316 µM
# [56] = second compound 10 µM, first compound 0.1 µM
# [57] = second compound 10 µM, first compound 0.316 µM
# [58] = second compound 10 µM, first compound 1 µM
# [59] = second compound 10 µM, first compound 3.16 µM
# [60] = second compound 10 µM, first compound 10 µM
# 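Further: spheroids exposed to the agents for 7 days before readout.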
compound,measurement,setting,value
CC(C)CC(NC(=O)C(Cc1ccccc1)NC(=O)c1cnccn1)B(O)O (stereo not drawn) + CNC(=O)c1ccc(Nc2nc(OC3CCCC3)c3c(-c4ccc5nc(C)oc5c4)c[nH]c3n2)c(OC)c1,IC50,second compound 0.0316 µM,0.0103 µM
same,IC50,second compound 0.1 µM,0.0111 µM
same,IC50,second compound 0.316 µM,0.00527 µM
same,IC50,second compound 1 µM,< 0.000949 µM
same,IC50,second compound 3.16 µM,< 0.000949 µM
same,IC50,second compound 10 µM,< 0.000949 µM
same,"viability, T/C","second compound 0.0316 µM, first compound 0.000949 µM",106%
same,"viability, T/C","second compound 0.0316 µM, first compound 0.003 µM",91.4%
same,"viability, T/C",[1],53%
same,"viability, T/C",[2],15%
same,"viability, T/C",[3],1.67%
same,"viability, T/C",[4],2.25%
same,"viability, T/C","second compound 0.1 µM, first compound 0.000949 µM",79.8%
same,"viability, T/C","second compound 0.1 µM, first compound 0.003 µM",65.5%
same,"viability, T/C",[5],57.2%
same,"viability, T/C",[6],10.3%
same,"viability, T/C",[7],2.17%
same,"viability, T/C",[8],0.85%
same,"viability, T/C","second compound 0.316 µM, first compound 0.000949 µM",80.2%
same,"viability, T/C","second compound 0.316 µM, first compound 0.003 µM",64.4%
same,"viability, T/C",[9],35.2%
same,"viability, T/C",[10],6.18%
same,"viability, T/C",[11],2.17%
same,"viability, T/C",[12],0.48%
same,"viability, T/C","second compound 1 µM, first compound 0.000949 µM",36.8%
same,"viability, T/C","second compound 1 µM, first compound 0.003 µM",32.6%
same,"viability, T/C",[13],14%
same,"viability, T/C",[14],3.9%
same,"viability, T/C",[15],0.77%
same,"viability, T/C",[16],1.23%
same,"viability, T/C","second compound 3.16 µM, first compound 0.000949 µM",30.9%
same,"viability, T/C","second compound 3.16 µM, first compound 0.003 µM",19.4%
same,"viability, T/C",[17],2.49%
same,"viability, T/C",[18],2.35%
same,"viability, T/C",[19],0.79%
same,"viability, T/C",[20],0.78%
same,"viability, T/C","second compound 10 µM, first compound 0.000949 µM",25%
same,"viability, T/C","second compound 10 µM, first compound 0.003 µM",15%
same,"viability, T/C",[21],3.13%
same,"viability, T/C",[22],3.29%
same,"viability, T/C",[23],0.81%
same,"viability, T/C",[24],0.61%
CC1(C)CCC(CN2CCN(c3ccc(C(=O)NS(=O)(=O)c4ccc(NCC5CCOCC5)c([N+](=O)[O-])c4)c(Oc4cnc5[nH]ccc5c4)c3)CC2)=C(c2ccc(Cl)cc2)C1 + CNC(=O)c1ccc(Nc2nc(OC3CCCC3)c3c(-c4ccc5nc(C)oc5c4)c[nH]c3n2)c(OC)c1,IC50,second compound 0.0316 µM,> 10 µM
same,IC50,second compound 0.1 µM,> 10 µM
same,IC50,second compound 0.316 µM,4.84 µM
same,IC50,second compound 1 µM,< 0.0316 µM
same,IC50,second compound 3.16 µM,< 0.0316 µM
same,IC50,second compound 10 µM,< 0.0316 µM
same,"viability, T/C",[25],108%
same,"viability, T/C",[26],96%
same,"viability, T/C",[27],102%
same,"viability, T/C",[28],88%
same,"viability, T/C",[29],108%
same,"viability, T/C",[30],66.1%
same,"viability, T/C",[31],108%
same,"viability, T/C",[32],105%
same,"viability, T/C",[33],110%
same,"viability, T/C",[34],104%
same,"viability, T/C",[35],113%
same,"viability, T/C",[36],61.5%
same,"viability, T/C",[37],69.8%
same,"viability, T/C",[38],62.8%
same,"viability, T/C",[39],61.3%
same,"viability, T/C",[40],58.7%
same,"viability, T/C",[41],64.4%
same,"viability, T/C",[42],27.1%
same,"viability, T/C",[43],36.3%
same,"viability, T/C",[44],37.7%
same,"viability, T/C",[45],27.1%
same,"viability, T/C",[46],38.2%
same,"viability, T/C",[47],31.8%
same,"viability, T/C",[48],17.9%
same,"viability, T/C",[49],29.6%
same,"viability, T/C",[50],33.6%
same,"viability, T/C",[51],28.6%
same,"viability, T/C",[52],31.3%
same,"viability, T/C",[53],29%
same,"viability, T/C",[54],15.4%
same,"viability, T/C",[55],31.4%
same,"viability, T/C",[56],25.7%
same,"viability, T/C",[57],26%
same,"viability, T/C",[58],25%
same,"viability, T/C",[59],29.4%
same,"viability, T/C",[60],13.6%
CC1COCCN1c1cc(C2(S(C)(=N)=O)CC2)nc(-c2ccnc3[nH]ccc23)n1 (stereo not drawn) + CNC(=O)c1ccc(Nc2nc(OC3CCCC3)c3c(-c4ccc5nc(C)oc5c4)c[nH]c3n2)c(OC)c1,IC50,second compound 0.0316 µM,> 10 µM
same,IC50,second compound 0.1 µM,> 10 µM
same,IC50,second compound 0.316 µM,> 10 µM
same,IC50,second compound 1 µM,< 0.0316 µM
same,IC50,second compound 3.16 µM,< 0.0316 µM
same,IC50,second compound 10 µM,< 0.0316 µM
same,"viability, T/C",[25],88.2%
same,"viability, T/C",[26],108%
same,"viability, T/C",[27],98.8%
same,"viability, T/C",[28],115%
same,"viability, T/C",[29],106%
same,"viability, T/C",[30],104%
same,"viability, T/C",[31],111%
same,"viability, T/C",[32],119%
same,"viability, T/C",[33],115%
same,"viability, T/C",[34],116%
same,"viability, T/C",[35],101%
same,"viability, T/C",[36],80.5%
same,"viability, T/C",[37],67.4%
same,"viability, T/C",[38],56%
same,"viability, T/C",[39],55%
same,"viability, T/C",[40],66.9%
same,"viability, T/C",[41],75.9%
same,"viability, T/C",[42],40.5%
same,"viability, T/C",[43],35.2%
same,"viability, T/C",[44],33.1%
same,"viability, T/C",[45],34.1%
same,"viability, T/C",[46],34.7%
same,"viability, T/C",[47],27%
same,"viability, T/C",[48],14.7%
same,"viability, T/C",[49],34.1%
same,"viability, T/C",[50],32.8%
same,"viability, T/C",[51],31.1%
same,"viability, T/C",[52],32.3%
same,"viability, T/C",[53],21.1%
same,"viability, T/C",[54],9.92%
same,"viability, T/C",[55],32%
same,"viability, T/C",[56],27.5%
same,"viability, T/C",[57],28.2%
same,"viability, T/C",[58],27.5%
same,"viability, T/C",[59],20.6%
same,"viability, T/C",[60],9.29%
NC(=O)C(=Cn1cnc(-c2cc(C(F)(F)F)cc(C(F)(F)F)c2)n1)c1cncnc1 + CNC(=O)c1ccc(Nc2nc(OC3CCCC3)c3c(-c4ccc5nc(C)oc5c4)c[nH]c3n2)c(OC)c1,IC50,second compound 0.0316 µM,0.583 µM
same,IC50,second compound 0.1 µM,0.467 µM
same,IC50,second compound 0.316 µM,0.205 µM
same,IC50,second compound 1 µM,0.0486 µM
same,IC50,second compound 3.16 µM,0.0446 µM
same,IC50,second compound 10 µM,0.0364 µM
same,"viability, T/C",[1],120%
same,"viability, T/C",[2],123%
same,"viability, T/C",[3],98.3%
same,"viability, T/C",[4],57.7%
same,"viability, T/C","second compound 0.0316 µM, first compound 0.949 µM",50.4%
same,"viability, T/C","second compound 0.0316 µM, first compound 3 µM",34.6%
same,"viability, T/C",[5],107%
same,"viability, T/C",[6],120%
same,"viability, T/C",[7],102%
same,"viability, T/C",[8],54%
same,"viability, T/C","second compound 0.1 µM, first compound 0.949 µM",49.4%
same,"viability, T/C","second compound 0.1 µM, first compound 3 µM",36.7%
same,"viability, T/C",[9],81.1%
same,"viability, T/C",[10],99%
same,"viability, T/C",[11],71%
same,"viability, T/C",[12],37.3%
same,"viability, T/C","second compound 0.316 µM, first compound 0.949 µM",41.7%
same,"viability, T/C","second compound 0.316 µM, first compound 3 µM",40.2%
same,"viability, T/C",[13],56.8%
same,"viability, T/C",[14],63.2%
same,"viability, T/C",[15],36.2%
same,"viability, T/C",[16],18%
same,"viability, T/C","second compound 1 µM, first compound 0.949 µM",29%
same,"viability, T/C","second compound 1 µM, first compound 3 µM",22.2%
same,"viability, T/C",[17],58.8%
same,"viability, T/C",[18],67.8%
same,"viability, T/C",[19],24.5%
same,"viability, T/C",[20],12.4%
same,"viability, T/C","second compound 3.16 µM, first compound 0.949 µM",18.9%
same,"viability, T/C","second compound 3.16 µM, first compound 3 µM",6.38%
same,"viability, T/C",[21],46.6%
same,"viability, T/C",[22],65.3%
same,"viability, T/C",[23],20.4%
same,"viability, T/C",[24],8.4%
same,"viability, T/C","second compound 10 µM, first compound 0.949 µM",11.9%
same,"viability, T/C","second compound 10 µM, first compound 3 µM",3.1%
